Patent publication US20240010683A1, “Peptide Inhibitors of Human Mitochondrial Fission Protein 1 and Methods of Use” (The Medical College of Wisconsin, Inc., priority 2020, published 2024)
Entries after “also recorded” stand apart in the source; their conditions may differ.

Key:
cardiac myocytes = details: rat model of T2DM (OLEFT), cited from earlier work
[1] = tested on: human resistance arteries; assay: Endothelium-dependent vasodilation to acetylcholine, resistance arteries from healthy subjects exposed to high or low glucose; details: for impaired endothelium-dependent vasodilation to acetylcholine: high glucose 33 mM six hours, 1-10 μM peptide
Excerpt: (§1) Human Resistance Artery Acquisition: Human resistance arteries from adipose samples were obtained from the upper outer quadrant of the gluteal adipose pad as previously described.^2,8,13,15,16 Briefly, following sterilization and anesthesia with 1% lidocaine, a 1-1.5 cm incision is made in the upper outer quadrant of the gluteal adipose pad. An approximately 8 cm^3 volume of adipose tissue was removed by sharp dissection. After achieving hemostasis, the wounds were closed with 1-2 absorbable deep dermal sutures and the epidermal layer closed using either Dermabond or steristrips.
(§2) Transfection of human resistance arteries with siRNA constructs was performed as previously described.^8,13 Briefly, resistance arteries dissected from adipose tissue were suspended in a culture myograph chamber (204 CM, DMT, Ann Arbor). One end of the vessel was sutured onto a glass pipette within a micro-organ chamber. Prior to suturing the second end of the arteriole to a glass pipette, Fis1 siRNA, Drp1 siRNA (20 nM in optiMEM using Lipofectamine RNAiMax, Invitrogen) or control scrambled siRNA (20 nM) were gently injected, into the vessel lumen. The loose end of the vessel is then tied onto another glass pipette, and the vessel is suspended in the chamber and placed on a myograph stage bathed in physiological buffer at 37° C. and pressurized to 60 mmHg. Following 4-6 hours of incubation, the siRNA is slowly washed out of the lumen over 24 hours at a low shear rate (□<5 dyn/cm^2).
(§3) Measurement of Endothelium-Dependent Vasoactivity: Transfected resistance arteries from healthy individuals were exposed to either normal glucose conditions (NG, glucose level 5 mM), 2 hours of low glucose (LG, glucose level 2.5 mM) or 6 hours of high glucose (HG, glucose level 33 mM). All studies in vessels from patients with T2DM were performed at 5 mM glucose. Vessels were pre-constricted approximately 50% of resting diameter with endothelin-1 (Sigma Aldrich, USA). The constricted arterioles are then exposed to acetylcholine (Ach) at serially increasing doses from 10^−10 to 10^−5 M, and changes in vessel diameter were measured using digital calipers and videomicroscopy. Following the 10^−5 M dose, vessels were exposed to 200 μM papaverine to test the smooth muscle reactivity. Following a 30-minute washout period, the same arterioles were re-constricted and incubated with L-NG-nitroarginine methyl ester (L-NAME, 100 μM), a direct inhibitor of nitric oxide synthase, for 30 minutes and vasodilation subsequently was remeasured following the exposure to Ach 10^−10 to 10^−5 M.

[2] = tested on: vessels from T2DM subjects; assay: Endothelium-dependent vasodilation to acetylcholine, resistance vessels from T2DM subjects; design: species or system human; details: for impaired endothelium-dependent vasodilation to acetylcholine: 5 mM glucose, 1 or 10 μM peptide
Excerpt: as §1, §2, §3

[3] = tested on: resistance arterioles from healthy humans over-expressing Fis1 in the endothelium; assay: Endothelium-dependent vasodilation in resistance arterioles over-expressing Fis1; design: species or system human; details: 1 μM peptide, one hour of exposure
Protocol: FIG. 19. Pep213 can reverse impaired endothelium-dependnet vasodilation in resistance arterioles. One hour of exposure to pep213 attached to a tat sequence to improve cell penetration (1 μM pep213-tat) reverses impaired endothelium-dependent vasodilation in resistance arterioles from healthy humans over-expressing Fis1 in the endothelium (overexpression of human Fis1 achieved using lentiviral vector to transfect the vessel with a plasmid for endothelial-specific over-expression of human Fis1). 1 μM of a scrambled peptide using the same amino acids as pep213 in a random order has no effect on endothelium dependent vasodilation to acetylcholine. Pep213-tat induce improves endothelium-dependent vasodilation in an eNOS-dependent manner (as determined by the loss in acetylcholine induced endothelium-dependent vasodilation with the use of eNOS inhibitor L-NAME). N=5, P<0.001 overall. *P<0.05 at the indicated doses of acetylcholine. Ach-acetylcholine.
Further the peptide of the present invention, e.g., Pep213, can reverse impaired endothelium-dependent vasodilation in resistance arterioles. […] Pep213-tat induce improves endothelium-dependent vasodilation in an eNOS-dependent manner (as determined by the loss in acetylcholine induced endothelium-dependent vasodilation with the use of eNOS inhibitor L-NAME). […]

[4] = tested on: human microvascular endothelial cells (HMVEC); assay: NO bioavailability (DAF2-DA) in endothelial cells treated with peptide; format: cell-based; details: 1 μM peptide, one hour, 37° C.
Protocol: FIG. 17. The bioavailability of nitric oxide (NO) increased in human microvascular endothelial cells (HMVEC) treated with novel peptide pep213. HMVEC cells were treated with 1 μM pep213-tat for one hour at 37° C. and NO was measured with diaminofluorescein-2 diacetate (DAF2-DA) staining. N=3,* P=0.04.
(§4) Cells in Culture: To measure nitric oxide (NO) bioavailability in HMEC-1 cells and arterioles, a fluorescent NO marker, 4,5-diaminofluorescein diacetate (DAF2-DA from Cayman Chemical) was used. In a dark room, cells were incubated with or without 100 μM L-NAME for 2 hours followed by 15 minutes of incubation with DAF2-DA (5 μM) at 37° C. Fluorescence intensity was measured using a SPECTRAFluor Plus plate reader (Tecan, Morrisville, NC) using excitation and emission wavelengths of 485 nm and 535 nm, respectively. […] The arterioles were then washed with PBS buffer, mounted on a slide, and imaged by fluorescence microscopy. Untreated and unstained arterioles were used as controls for fluorescence background interference. Both treated and control vessels were measured using the same gain settings and the results were analyzed using Meta Morph 7.8 software (Universal imaging, West Chester, PA).

ApoE knockout mice = details: cited from earlier work
[5] = tested on: aortic endothelium of diabetic mice; details: cited from earlier work
HMEC-1 cells = assay: NO production and eNOS activation in HMEC-1 cells; format: cell-based, human; details: non-transfected HMEC-1 cells
Protocol: FIG. 14. Phosphorylation of eNOS at Ser1177 and NO production increased in HMEC-1 cells upon activation with Ca+2 ionophore A23187 (A) representative western blot of p-eNOS-Ser1177) and β-actin with and without addition of A23187.(B) Quantitative measure of p-eNOS-(Ser1177) treated with and without A23187 (P=0.03, n=6). (C) NO production as measured using DAF2-DA (5 uM) increased upon addition of A23187 (n=4, P=0.02).
FIG. 15. […] Cells exposed to L-NAME were incubated with L-NAME for 2 hours followed by a 15-minute incubation with DAF2-DA (5 uM) prior to measurement of fluorescence intensity.
as §4, with “In a dark room, cells were incubated with or without 100 μM L-NAME for 2 hours followed by 15 minutes of incubation with DAF2-DA (5 μM) at 37° C.” left out

[6] = tested on: human resistance arteries; assay: NO bioavailability (DAF2-DA fluorescence) in human resistance arteries; details: healthy vessels, HG and LG
Protocol: as §4, with “respectively. Human Resistance Arteries: Two vessels were obtained from a subset of healthy subjects and each vessel was cut in half to allow for four experimental conditions which included transfection with Fis1 siRNA or Drp1 siRNA with and without concomitant exposure to L-NAME for 30 minutes and transfection with scrambled siRNA control with and without concomitant exposure to L-NAME at room temperature.” for “respectively.”

In the case of `OC[C@H]1O[C@@H](c2ccc(Cl)c(Cc3ccc(O[C@H]4CCOC4)cc3)c2)[C@H](O)[C@@H](O)[C@@H]1O` [Empagliflozin], the “mitochondrial superoxide dismutase, SOD2” value (cardiac myocytes; cardiac myocytes) is given as “up-regulated”, the Fis1 over-expression (cardiac myocytes) is given as “reduced” and the mitochondrial fission (cardiac myocytes) is given as “reduced”.
With “YGRKKRRQRRRGSGSGSSHKHDPLPYPHFLL (Synthetic - Pep213 fused to TAT (pep213-TAT))” the “papaverine response (smooth muscle reactivity)” value ([1]; 200 μM papaverine, healthy and T2DM vessels) was “did not impact”, the “impaired endothelium-dependent vasodilation to acetylcholine” value ([1]; healthy vessels) was “reversed” and the “impaired endothelium-dependent vasodilation to acetylcholine” value ([1]; healthy vessels, listed as Pep213-tat) was “reversed”. For the same molecule, the “impaired endothelium-dependent vasodilation to acetylcholine” value ([1]; healthy vessels, listed as Tat sequence-linked pep213) was “improved”, the “impaired endothelium-dependent vasodilation to acetylcholine” value ([1]; healthy vessels, listed as pep213-TAT) was “significant improvement” and the “impaired endothelium-dependent vasodilation to acetylcholine” value ([2]; T2DM vessels) was “reverses”. For the same molecule, the “impaired endothelium-dependent vasodilation to acetylcholine” value ([2]; T2DM vessels, listed as Pep213-tat) was “reversed”, the “impaired endothelium-dependent vasodilation to acetylcholine” value ([2]; T2DM vessels, listed as Tat sequence-linked pep213) was “improved” and the “impaired endothelium-dependent vasodilation to acetylcholine” value ([2]; T2DM vessels, listed as pep213-TAT) was “significant improvement”. The “impaired endothelium-dependent vasodilation to acetylcholine” value [3] was “reverses”, the “NO bioavailability (DAF2-DA fluorescence)” value [4] was “increased” and the “NO bioavailability (DAF2-DA fluorescence)” value ([4]; listed as pep213-TAT) was “significant increase”.
For `CN(C)C(=N)N=C(N)N` [Metformin], the atherosclerotic formation (ApoE knockout mice) is listed as “reduces”.
In the case of `N#C[C@@H]1CCCN1C(=O)CNC12CC3CC(CC(O)(C3)C1)C2` [vildagliptin], the NO production ([5]; aortic endothelium of diabetic mice) is given as “increasing”, the “Drp1 translocation from the cytosol” value ([5]; diabetic mice) is given as “reduces” and the ROS production ([5]; diabetic mice) is given as “reduces”. For the same molecule, the “expression of Fis1 and Drp1” value ([5]; diabetic mice) was “reduces” and the mitochondrial fission ([5]; diabetic mice) was “reduces”.
For `CNc1ccc2oc(C[C@H]3O[C@@]4(CC[C@H]3C)O[C@H]([C@H](C)C(=O)c3ccc[nH]3)[C@H](C)C[C@H]4C)nc2c1C(=O)O` [A23187], the “NO production (DAF2-DA fluorescence intensity)” value (HMEC-1 cells) was “significant increase; also recorded: increased” and the “eNOS phosphorylation at Ser1177” value (HMEC-1 cells) was “significant increase; also recorded: increased”.
In the case of `COC(=O)[C@@H](N)CCCNC(=N)N[N+](=O)[O-]` [L-NAME, L-NG-nitroarginine methyl ester], the “effect of L-NAME on protective effect of Fis1 siRNA” value ([1]; healthy vessels, HG and LG) is reported as “completely blocked”, the “effect of L-NAME on improvement seen with pep213-tat” value ([1]; healthy vessels, high glucose, L-NAME 100 μM) is reported as “abolished the improvements; also recorded: reversed all improvements” and the “effect of L-NAME on improvement seen with pep213-TAT” value ([2]; T2DM vessels, L-NAME 100 μM) is reported as “abolished the improvements”. For the same molecule, the “effect of L-NAME on favorable effect of Fis1 siRNA” value ([2]; vessels from diabetic subjects) was “completely attenuated” and the “effect of L-NAME on Fis1 siRNA increase in DAF2-DA fluorescence” value [6] was “completely abolished”.
